Columns and labels:
[1] = MDCK in vitro permeability assay (wild type MDCK cells, no inhibitor); assay type: in vitro ADME, Canine; details: dog, no Pgp inhibitor, apical to basolateral (A→B)
Procedure: (§1) Compounds were tested for permeability in an MDCK permeability assay. This assay measures the ability of compounds to cross a layer of Madin-Darby Canine Kidney (MDCK) cells from the apical to basolateral side (A→B). This measurement is predictive of the ability of compounds to be absorbed in the gut following oral dosing, an essential characteristic of an orally administered small molecule integrin inhibitor drug.
(§2) The assay is run in two formats. One uses wild type MDCK cells with no inhibitor. This method works well in determining the passive permeability of compounds with low efflux by P-glyocprotein (Pgp), and was used to assess permeability of a Reference Compound having the chemical formula shown below.
(§3) Cell Culture and Maintenance: • Cell stock cultures (MDCK or MDCK MDR1) are maintained in MEM+10% FBS+1% NEAA, grown in 75 cm^2 tissue culture treated flasks and split (passed) 2 times weekly to maintain desired confluence. • For maintenance passage: trypsinized cells are routinely distributed into new flasks at a standard passage ratio of 1:20.
(§4) Seeding assay plates: MDCK assay plates are seeded with MDCK or MDCK MCR1 cells 3-4 days prior to running the assay. 24-well plates are seeded at a cell density of 0.88×10^5/well in a 400 μL apical chamber volume (2.2×10^5/mL) with a […] volume of growth medium to the 24-well basal chamber. […]

[2] = system: Madin-Darby Canine Kidney (MDCK) cells; assay: as above; assay type: in vitro ADME; details: no Pgp inhibitor, apical to basolateral (A→B)
Procedure: as §1, §2, §3, §4

In the case of O=C(O)CN1CCC(C(=O)N2CCC(c3ccc4c(n3)NCCC4)CC2)CC1 [Reference Compound], the Papp A→B at 90 min, 5 μM [1] is reported as under 0.23 ×10⁻⁶ cm/s and the “MDCK (A->B)” value [2] is reported as “less than 0.23”.

— US12528803B2, “Inhibitors of αvβ6 integrin” (Morphic Therapeutic, Inc., priority 2018, dated 2026)
